Measured values taken from patent US20250353841A1 (BIOGEN MA INC., priority 2022, published 2025).

Test system: mutant Huntington (HTT) protein
Assay: HTT Mutant HTRF iPSC assay (mHTT protein lowering)
Format: cell-based
Conditions: human iPSC derived from a HTT patient with a poly-Q49 mutation

Compound `Cc1cn2nc(-c3cc(F)c4nc(N5CCC(N(C)C)CC5)oc4c3)cc(C(F)F)c2n1` [Compound 495, 1-(6-(8-(difluoromethyl)-2-methylimidazo[1,2-b]pyridazin-6-yl)-4-fluorobenzo[d]oxazol-2-yl)-N,N-dimethylpiperidin-4-amine] has an IC50 of less than 100 nM.
With `Cc1nc2c(C)cc(-c3cc(F)c4nc(N5CCC(N(C)C)CC5)oc4c3)nn2n1` [Compound 496, 1-(6-(2,8-dimethyl-[1,2,4]triazolo[1,5-b]pyridazin-6-yl)-4-fluorobenzo[d]oxazol-2-yl)-N,N-dimethylpiperidin-4-amine] the IC50 was 100 to 1000 nM.
In the case of `Cc1cn2nc(-c3cc(F)c4nc(N5CCC(N(C)C)CC5)oc4c3)cc2c(C)n1` [Compound 497, 1-(6-(4,6-dimethylpyrazolo[1,5-a]pyrazin-2-yl)-4-fluorobenzo[d]oxazol-2-yl)-N,N-dimethylpiperidin-4-amine], the IC50 is reported as 100 to 1000 nM.
In the case of `Cc1nc2c(C)cc(-c3cc(F)c4nc(N5CCC6(CCN(C)CC6)C5)oc4c3)nn2n1` [Compound 498, 6-(2,8-dimethyl-[1,2,4]triazolo[1,5-b]pyridazin-6-yl)-4-fluoro-2-(8-methyl-2,8-diazaspiro[4.5]decan-2-yl)benzo[d]oxazole], the IC50 is reported as 100 to 1000 nM.
Compound `Cc1cn2nc(-c3cc(F)c4nc(N5CCC6(CCN(C)CC6)C5)oc4c3)cc2c(C)n1` [Compound 499, 6-(4,6-dimethylpyrazolo[1,5-a]pyrazin-2-yl)-4-fluoro-2-(8-methyl-2,8-diazaspiro[4.5]decan-2-yl)benzo[d]oxazole] has an IC50 of 100 to 1000 nM.
`Cc1cn2nc(-c3cc(F)c4nc(N5CCCC(N(C)C)C5)oc4c3)cc(C)c2n1` (stereo not drawn) [Compound 500, 1-(6-(2,8-dimethylimidazo[1,2-b]pyridazin-6-yl)-4-fluorobenzo[d]oxazol-2-yl)-N,N-dimethylpiperidin-3-amine] showed an IC50 of 100 to 1000 nM.
For `Cc1cn2nc(-c3cc(F)c4nc(N5CCC6(CCN(C)C6)C5)oc4c3)cc(C)c2n1` (stereo not drawn) [Compound 501, 6-(2,8-dimethylimidazo[1,2-b]pyridazin-6-yl)-4-fluoro-2-(7-methyl-2,7-diazaspiro[4.4]nonan-2-yl)benzo[d]oxazole], the IC50 was 100 to 1000 nM.
`CCN1CCC(N(C)c2nc3c(F)cc(-c4cc(C)c5nc(C)cn5n4)cc3o2)CC1` [Compound 502, 6-(2,8-dimethylimidazo[1,2-b]pyridazin-6-yl)-N-(1-ethylpiperidin-4-yl)-4-fluoro-N-methylbenzo[d]oxazol-2-amine] showed an IC50 of less than 100 nM.
`CCN1CCC(N(C)c2nc3c(F)cc(-c4cc(C)c5nc(C)cn5n4)cc3o2)CC1C` (stereo not drawn) [Compound 503, 6-(2,8-dimethylimidazo[1,2-b]pyridazin-6-yl)-N-(1-ethyl-2-methylpiperidin-4-yl)-4-fluoro-N-methylbenzo[d]oxazol-2-amine] gave an IC50 of less than 100 nM.
Compound `Cc1cn2nc(-c3cc(F)c4nc(N(C)C5CC(C)(C)NC(C)(C)C5)oc4c3)ccc2n1` [Compound 504, 4-fluoro-N-methyl-6-(2-methylimidazo[1,2-b]pyridazin-6-yl)-N-(2,2,6,6-tetramethylpiperidin-4-yl)benzo[d]oxazol-2-amine] has an IC50 of 100 to 1000 nM.
In the case of `COc1cc(-c2cc(F)c3nc(N4CCC5(CCN(C)CC5)C4)oc3c2)nn2nc(C)nc12` [Compound 505, 4-fluoro-6-(8-methoxy-2-methyl-[1,2,4]triazolo[1,5-b]pyridazin-6-yl)-2-(8-methyl-2,8-diazaspiro[4.5]decan-2-yl)benzo[d]oxazole], the IC50 is reported as less than 100 nM.
In the case of `Cc1cn2nc(-c3cc(F)c4nc(N5CCC(N(C)C)CC5)oc4c3)cc(C(F)(F)F)c2n1` [Compound 506, 1-(4-fluoro-6-(2-methyl-8-(trifluoromethyl)imidazo [1,2-b]pyridazin-6-yl)benzo[d]oxazol-2-yl)-N,N-dimethylpiperidin-4-amine], the IC50 is reported as less than 100 nM.
`Cc1cn2nc(-c3cc(F)c4nc(N5CCC6(CCN(C)CC6)C5)oc4c3)cc(C(F)F)c2n1` [Compound 507, 6-(8-(difluoromethyl)-2-methylimidazo[1,2-b]pyridazin-6-yl)-4-fluoro-2-(8-methyl-2,8-diazaspiro[4.5]decan-2-yl)benzo[d]oxazole] showed an IC50 of less than 100 nM.
With `Cc1cn2nc(-c3cc(F)c4nc(N5CCC6(CCCN6C)CC5)oc4c3)cc(C)c2n1` [Compound 514, 6-(2,8-dimethylimidazo[1,2-b]pyridazin-6-yl)-4-fluoro-2-(1-methyl-1,8-diazaspiro[4.5]decan-8-yl)benzo[d]oxazole] the IC50 was less than 100 nM.
For `Cc1cn2nc(-c3cc(F)c4nc(N5CCC6(CCN(C)CC6)CC5)oc4c3)cc(C)c2n1` [Compound 515, 6-(2,8-dimethylimidazo[1,2-b]pyridazin-6-yl)-4-fluoro-2-(9-methyl-3,9-diazaspiro[5.5]undecan-3-yl)benzo[d]oxazole], the IC50 was 100 to 1000 nM.
For `Cc1cn2nc(-c3cc(F)c4nc(N5CCC6(CCN(C)CC6)C5)oc4c3)cc(C(F)(F)F)c2n1` [Compound 520, 4-fluoro-6-(2-methyl-8-(trifluoromethyl)imidazo [1,2-b]pyridazin-6-yl)-2-(8-methyl-2,8-diazaspiro[4.5]decan-2-yl)benzo[d]oxazole], the IC50 was less than 100 nM.
With `Cc1cn2cc(-c3cc(F)c4oc(N(C)CCN5CCOCC5)nc4c3)cc(F)c2n1` [Compound 532, 7-fluoro-5-(8-fluoro-2-methylimidazo[1,2-a]pyridin-6-yl)-N-methyl-N-(2-morpholinoethyl)benzo [d]oxazol-2-amine] the IC50 was 1000 to 9000 nM.
Work on `CCN1CCC(N(C)c2nc3cc(-c4cc(C)c5nc(C)cn5n4)cc(F)c3o2)CC1C` [Compound 533, rel-5-(2,8-dimethylimidazo[1,2-b]pyridazin-6-yl)-N-((2S,4S)-1-ethyl-2-methylpiperidin-4-yl)-7-fluoro-N-methylbenzo[d]oxazol-2-amine] yielded an IC50 of 1000 to 9000 nM.
In the case of `Cc1cn2cc(-c3cc(Cl)c4oc(C5CCNCC5)nc4c3)cc(F)c2n1` [Compound 534, 7-chloro-5-(8-fluoro-2-methylimidazo[1,2-a]pyridin-6-yl)-2-(piperidin-4-yl)benzo[d]oxazole], the IC50 is reported as 1000 to 9000 nM.
Compound `Cc1cn2nc(-c3cc(Cl)c4oc(C5CCNCC5)nc4c3)cc(C)c2n1` [Compound 535, 7-chloro-5-(2,8-dimethylimidazo[1,2-b]pyridazin-6-yl)-2-(4-piperidyl)-1,3-benzoxazole] has an IC50 of 1000 to 9000 nM.
With `Cc1cn2cc(-c3cc(OC(F)F)c4nc(C5CCNCC5)cn4c3)cc(F)c2n1` [Compound 536, 8-(difluoromethoxy)-8′-fluoro-2′-methyl-2-(piperidin-4-yl)-6,6′-biimidazo[1,2-a]pyridine] the IC50 was 100 to 1000 nM.
Compound `Cc1cn2nc(-c3cc(OC(F)F)c4nc(C5CCNCC5)cn4c3)cc(C)c2n1` [Compound 537, 6-[8-(difluoromethoxy)-2-(4-piperidyl)imidazo[1,2-a]pyridin-6-yl]-2,8-dimethyl-imidazo[1,2-b]pyridazine] has an IC50 of less than 100 nM.
In the case of `COc1cc(-c2cc(C)c3nc(C)cn3n2)cn2cc(C3CCNCC3)nc12` [Compound 538, 6-(8-methoxy-2-(piperidin-4-yl)imidazo[1,2-a]pyridin-6-yl)-2,8-dimethylimidazo[1,2-b]pyridazine], the IC50 is reported as less than 100 nM.
`COc1cc(-c2cc(C)c3nc(C)cn3n2)cn2cc([C@H]3[C@@H]4CN(C)C[C@@H]43)nc12` [Compound 539, 6-[8-methoxy-2-[(1S,5R)-3-methyl-3-azabicyclo[3.1.0]hexan-6-yl]imidazo[1,2-a]pyridin-6-yl]-2,8-dimethyl-imidazo[1,2-b]pyridazine] was tested, and the IC50 was less than 100 nM.
